In patent US5538834A, “Blocked photographically useful compounds for use with peroxide-containing processes” (Eastman Kodak Company, priority 1994, dated 1996):
Blank lines part the entries; values can stand above or below the compound they belong to.

What was measured:
Format in all cases: physicochemical
[1] = Thermal stability: retained blocked developing agent by HPLC after incubation (Examples 3-5); details: 1 week at 100° F. and 50% relative humidity, 10080 min
Experimental: Blocked p-phenylenediamine developing agents 1, 3 and 6 were incorporated in photographic elements and evaluated for image dye formation activity and stability under storage conditions. The photographic elements were prepared as follows. The developing agents were dissolved in a high vapor pressure organic solvent (ethyl acetate for compounds 1 and 6, cyclohexanone for compound 3). The solutions were subsequently emulsified in aqueous gelatin using Alkanol-XC (Du Pont) as a dispersing aid. The dispersions were formulated such that the developing agents were initially present at 3% by weight, gelatin at 4% by weight and Alkanol-XC at 0.4% by weight. The initial slurries were emulsified by passing the mixtures through a colloid mill using known procedures. The organic solvents were then removed by evaporation.
Sets of strips were incubated for 1 week at 100° F. and 50% relativ humidity, and then evaluated by high performance liquid chromatography for amount of retained blocked developing agent. Sensitometry was obtained for step-tablet white-light exposures by contacting the strips with an activator solution at 77° F. The activator solution had the following composition:
The imaging activity and thermal stability of the exemplary blocked developing agents are given in Table V. The thermal stability denotes the percent retention, that is, the relative amount of blocked developing agent remaining after incubation, relative to the amount of developing agent initially coated.

[2] = Deblocking / dye release from ballasted blocked filter dye coating in alkaline buffer flow cell (Example 2); details: for % reaction after 400 sec.: 6.66667 min
Experimental: DOC Gelatin (2700 mg/m^2)
FILTER DYE LAYER Gelatin (3780 mg/m^2)
bis(vinylsulfonylmethyl)ether
FILMBASE polyacetate-butyrate
Coating strips were suspended in a flow cell while alkaline buffer solutions at 40° C. were passed through it. As deblocking proceeded, the yellow color of the strips was reduced as the water-solublefilter dye was released and washed out of the film.

[3] = Accelerated keeping test of coatings, raw stock stability (Example 2); details: 2 weeks at 50° C. and 50% relative humidity; 20160 min
Source text: Coatings containing compound 32 as described above were also subjected to accelerated keeping tests to determine raw stock stability.

[4] = Ester cleavage rate in solution without and with hydrogen peroxide (Example 1); details: pH 10 solution, 25° C., 5% CH3CN aqueous solution
Experimental: ^a 5% CH3 CN aqueous solution
nonionic surfactant micellar solution
^c pH 10 solution, 25° C.

Retention [1]: 100%
SMILES: CCN(CCNS(C)(=O)=O)c1ccc(NC(=O)OCc2ccc(OC(=O)C(C)(C)C)c(NS(C)(=O)=O)c2)c(C)c1 [compound 1]

Retention [1]: 98%
SMILES: CCN(CCNS(C)(=O)=O)c1ccc(NC(=O)OCc2ccc(OC(=O)C(C)C)c(NC(=O)CCCC(=O)O)c2)c(C)c1 [compound 3]

Retention [1]: 100%
SMILES: CCC(=O)Oc1ccc(COC(=O)Nc2ccc(N(CC)CCNS(C)(=O)=O)cc2C)cc1NC(=O)c1ccc(NS(C)(=O)=O)cc1 [compound 6]

t1/2 ([2]; pH 10, 0.2 N H2O2, 40° C.): 3.67 min
% reaction after 400 sec. ([2]; pH 10, 0.2 N H2O2, 40° C.): 77%
t1/2 ([2]; pH 10, no H2O2, 40° C.): very long
% reaction after 400 sec. ([2]; pH 10, no H2O2, 40° C.): 3%
t1/2 ([2]; pH 10.7, 0.2 N H2O2, 40° C.): 1.17 min
% reaction after 400 sec. ([2]; pH 10.7, 0.2 N H2O2, 40° C.): 100%
t1/2 ([2]; pH 10.7, no H2O2, 40° C.): 13 min
% reaction after 400 sec. ([2]; pH 10.7, no H2O2, 40° C.): 31%
recovery after storage [3]: greater than 93%
SMILES: CCCCCCCCCCCCCCCCS(=O)(=O)Nc1ccc(C(=O)Nc2cc(COC(=O)Nc3cc(N(C)C)ccc3N=Nc3cccc(C(=O)O)c3)ccc2OC(=O)CC)cc1 [compound 32]

t1/2, 0.1M H2O2 ([4]; 0.1M H2O2): 0.0113 min
t1/2, no H2O2 ([4]; no H2O2): 95 min
SMILES: CC(C)(C)C(=O)Oc1ccc([N+](=O)[O-])cc1 [p-nitrophenyl pivalate]
